Holding throughout (type): cell-based
Test [1] relates to constitutive active colorectal cancer cell (CRC) Wnt pathway. The experiment in a line: HCT116 Super TopFlash cellular reporter assay (constitutive active Wnt pathway). The settings on record: HCT116 TOP reporter cells, luciferase expression, 36 hours incubation, 50 μM to 15 nM. In a few lines:
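HCT116 cells (β-catenin ΔS45) stably carrying Super TopFlash, with a parallel FOP-control line, were plated 24 h ahead. They were exposed 36 h at 37 °C, 5% CO2 to compound from a 50 μM–15 nM, 3.16-fold pre-dilution series in CAFTY buffer (pH 7.4, 2 mM Ca2+, 0.01% BSA). Wnt signalling was read as luciferase luminescence.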
(A reporter such as luciferase makes a cellular process visible.)

Test [2] deals with HCT116 FOP control reporter cell line. The experiment in a line: HCT116 FOP control vector reporter assay (non-functional TCF elements). The settings on record: Homo sapiens, HCT-116, 36 h, HCT116 FOP control reporter cells, luciferase expression, 36 hours incubation, 50 μM to 15 nM; read-out: HCT116 FOPFlash IC50. In outline: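 Stable HCT116 line carrying the non-functional FOP luciferase construct, 10000 cells/well plated 24 hrs before. Compounds 50 μM to 15 nM (3.16-fold steps) in CAFTY buffer pH 7.4 with 2 mM Ca2+, 36 hours at 37° C; luciferase luminescence read.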

Another test deals with wildtype Wnt pathway. The experiment in a line: HEK293 Super TopFlash cellular reporter assay, Wnt-3a stimulated (wildtype Wnt pathway). The settings on record: Homo sapiens; HEK293 TOP reporter cells, EC50 concentration of recombinant Wnt-3a, 16 hours incubation; read-out: HEK TOP OncoFlash IC50. In outline:
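Stable HEK293 Super TopFlash and FOP reporter cells stimulated with recombinant human Wnt-3a (2500–5 ng/ml, two-fold steps). Compounds tested 50 μM to 15 nM in 3.16-fold steps in CAFTY buffer pH 7.4 with 2 mM Ca2+ and 0.01% BSA; luciferase read-out.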

Test [3] relates to HEK293 FOP control reporter cell line. The experiment in a line: HEK293 FOP control vector reporter assay. The settings on record: Homo sapiens; HEK293 FOP control reporter cells, EC50 concentration of recombinant Wnt-3a, 16 hours incubation; read-out: HEK FOP IC50. In a few lines:
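Stable HEK293 cells carrying FOP control vector (non-functional TCF sites), 10000 cells/well plated 24 h before, stimulated with recombinant human Wnt-3a at 2500–5 ng/ml in two-fold steps. Compounds from 50 μM to 15 nM (3.16-fold) in CAFTY buffer pH 7.4 with 2 mM Ca2+, 0.01% BSA, run in parallel with TOP line; luciferase read-out.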

Where a name gives a salt, the structure may show the parent alone.

For orientation: IC50 means the point on the concentration scale where inhibition reaches its midpoint. Regarding `COCc1ccc(C(=O)Nc2ccc(-c3ccccc3)cc2)cc1NC(=O)C1(N2CCN(C)CC2)CC1` [Example 96, N-(biphenyl-4-yl)-4-(methoxymethyl)-3-({[1-(4-methylpiperazin-1-yl)cyclopropyl]carbonyl}amino)benzamide hydrochloride (1:1)], the IC50 in test [1] (Homo sapiens, HCT-116, 36 h) was 34.5 nM; in test [2], 8250 nM; in the test with wildtype Wnt pathway it was 40 nM; in test [3] it was 9600 nM.
In the same order, the values of `O=C(Nc1ccc(-c2ccccc2)cc1)c1ccc(Cl)c(NC(=O)C2(N3CCOCC3)CC2)c1` [Example 97, N-(biphenyl-4-yl)-4-chloro-3-({[1-(morpholin-4-yl)cyclopropyl]carbonyl}amino)benzamide] are 24.2 nM, no less than 50000 nM, 250 nM and no less than 50000 nM.
In the same order, the values of `O=C(Nc1ccc(-c2ccccc2)cc1)c1ccc(C(F)(F)F)c(NC(=O)C2(N3CCOCC3)CC2)c1` [Example 98, N-(biphenyl-4-yl)-3-({[1-(morpholin-4-yl)cyclopropyl]carbonyl}amino)-4-(trifluoromethyl)benzamide] are 7.24 nM, no less than 50000 nM, 86 nM and no less than 50000 nM.
As to `COc1ccc(C(=O)Nc2ccc(-c3ccccc3)cc2)cc1NC(=O)C1(N2CCN(C)CC2)CC1` [Example 100, N-(biphenyl-4-yl)-4-methoxy-3-({[1-(4-methylpiperazin-1-yl)cyclopropyl]carbonyl}amino)benzamide hydrochloride (1:1)], the IC50 in test [1] amounted to 24.8 nM; in test [2], 20800 nM; in the test on wildtype Wnt pathway it was 90 nM; in test [3] it was 19000 nM.
As for `COc1ccc(C(=O)Nc2ccc(-c3ccccc3)cc2)cc1NC(=O)C1(N2CCOCC2)CC1` [Example 101, N-(biphenyl-4-yl)-4-methoxy-3-({[1-(morpholin-4-yl)cyclopropyl]carbonyl}amino)benzamide], the half-maximal inhibitory concentration (IC50) in test [1] (Homo sapiens, HCT-116, 36 h) is 5.21 nM; in test [2], no less than 50000 nM; in the test with wildtype Wnt pathway, 11 nM; in test [3], 17000 nM.
In the same order, the values of `CCNC(=O)c1ccc(C(=O)Nc2ccc(-c3ccccc3)cc2)cc1NC(=O)CN1CCOCC1` [Example 102, N^4-(biphenyl-4-yl)-N^1-ethyl-2-[(morpholin-4-ylacetyl)amino]terephthalamide] are 45.9 nM, 28900 nM, 41 nM and 5800 nM.
On to `COCCNC(=O)c1ccc(C(=O)Nc2ccc(-c3ccccc3)cc2)cc1NC(=O)CN1CCOCC1` [Example 106, N^4-(biphenyl-4-yl)-N^1-(2-methoxyethyl)-2-[(morpholin-4-ylacetyl)amino]terephthalamide], for which the IC50 in test [1] (Homo sapiens, HCT-116, 36 h) is 17.2 nM; in test [2], no less than 50000 nM; in the test on wildtype Wnt pathway, 76 nM; in test [3] it was no less than 50000 nM.
Consider `O=C(CN1CCOCC1)Nc1cc(C(=O)Nc2ccc(-c3ccccc3)cc2)ccc1C(=O)NC1CC1` [Example 107, N^4-(biphenyl-4-yl)-N^1-cyclopropyl-2-[(morpholin-4-ylacetyl)amino]terephthalamide], for which the IC50 in test [1] (Homo sapiens, HCT-116, 36 h) was 38.5 nM; in test [2] it was 21000 nM; in the test on wildtype Wnt pathway, 310 nM; in test [3], 36000 nM.
In the same order, the values of `COCCCNC(=O)c1ccc(C(=O)Nc2ccc(-c3ccccc3)cc2)cc1NC(=O)CN1CCOCC1` [Example 108, N^4-(biphenyl-4-yl)-N^1-(3-methoxypropyl)-2-[(morpholin-4-ylacetyl)amino]terephthalamide] are 44.5 nM, 43500 nM, 15.6 nM and no less than 50000 nM.
In the same order, the values of `CSc1ccc(C(=O)Nc2ccc(-c3ccccc3)cc2)cc1NC(=O)CN1CCOCC1` [Example 109, N-(biphenyl-4-yl)-4-(methylsulfanyl)-3-[(morpholin-4-ylacetyl)amino]benzamide] are 48.8 nM, no less than 50000 nM, 280 nM and no less than 50000 nM.

The record behind these values is patent US20160052898A1, “NOVEL COMPOUNDS” (BAYER PHARMA AKTIENGESELLSCHAFT, priority 2013, published 2016).
